Patent US20170304228A1, “NEW INDICATION OF CINACALCET HCL PHARMACEUTICAL COMPOSITION FOR TREATING CANCER” (LAUNX BIOMEDICAL CO., LTD., priority 2014, published 2017)
Several values for one entry are separate records, joined by “and”; a condition that tells them apart may be missing. Equal values may be shown once. Where a name gives a salt, the structure may show the parent alone. Read-outs that look alike come from different tables or passages of the source.

Experiments:
[1] = test system: BxPC-3; experiment: Cell viability analysis (WST-1), BxPC-3; assay type: cell-based; conditions: Homo sapiens, read-out: survival rate (viability) of cells
Method: (§1) The cell numbers were counted and reseed as 2×10^6 in culture plate/flask. Then, the culture medium were added to a volume of 10 ml, and the cells were cultured for 2-3 days. Then, the cells were suspended for loading into 96-well plates. The number of cells was 3000 and the volume of the culture medium was 100 μl each well.
(§2) Removing the original culture medium from 96-well plate. Then add 100 μl of commercially drug at a concentration of 10 μM per well. After 72 hours, add the diluted WST-1 reagent to the well with 100 μl/well, and the diluted WST-1 reagent was acquired from the dilution of 9:1 medium and WST-1 stock reagent. Finally, the total volume of each well was 200 μl/well. Culture the 96-well plate at 37° C. for 30 to 90 minutes. Detecting and calculate the survival rate of each cancer cells with an ELISA reader at OD450 nm. The lower viability of cancer cells represents better inhibition effect via the Cinacalcet HCl drug. Otherwise, the higher viability of cancer cells represents worse inhibition effect via the Cinacalcet HCl drug.
This inhibition test of Cinacalcet HCl on gastrointestinal tract-related cancer cells were using gastric cancer cell lines AGS and MKN-45 (Table 9), hepatic cancer cell lines HepG2 and Hep3B (Table 10), colorectal cancer cell lines HCT116-wt and LoVo (Table 11), pancreatic cancer cell line AsPC-1 and BxPC-3(Table 12), tongue cancer cell line SAS (Table 13). The inhibitory tests of Cinacalcet HCl were performed 4 times for each cell lines and then the average value of the inhibitory tests was calculated.

[2] = test system: PC-3; experiment: Cell viability analysis (WST-1), PC-3; assay type: cell-based; conditions: Homo sapiens, read-out: survival rate (viability) of cells
Method: as §1, §2
This inhibition test of Cinacalcet HCl on endocrine-related cancer cells were using prostate cancer cell lines PC-3 and LNCap (Table 6), breast cancer cell lines MCF7 and MDA-MB-231 (Table 7), and ovarian cancer cell lines NIH-OVCAR-3 and TOV-21G (Table 8). The inhibitory tests of Cinacalcet HCl were performed 4 times for each cell lines and then the average value of the inhibitory tests was calculated.

[3] = Animal model test of gastric cancer, body weight and health status; assay type: in vivo, mice; conditions: for weight: single mice A, B, C, hydrochloride
Method: In this invention, the female mice were(BALB/cAnN.Cg-Foxnl™/CrlNarl) and purchased from National Laboratory Animal Center (Taiwan). The weight of the mice were 21±1 g. These mice were subcutaneously injected with gastric cancer cells (AGS) and then put these mice into different cages at random. The drug test experiment was divided into three groups, include “control group”, “low dose group (100 mg/kg/day)”, “high dose group (200 mg/kg/day)”. These mice were then injected test drug intraperitoneally once daily […]. The tumor sizes and body weight were measured twice a week. The tumor sizes were measured and calculated by formula: (L×W^2)/2. L represents the tumor longest length. W represents the tumor shortest diameter.

SMILES: C[C@@H](NCCCc1cccc(C(F)(F)F)c1)c1cccc2ccccc12 [Cinacalcet HCl, Cinacalcet hydrochloride]
- viability at 10 µM ([1]; BXPC-3, 10 μM, 72 hours, test 3-4-30 min): 76.2%
- viability at 10 µM ([1]; BXPC-3, 10 μM, 72 hours, test 3-7-3-30 min): 64.6%
- viability at 10 µM ([1]; BXPC-3, 10 μM, 72 hours, test 3-7-4-30 min): 78.8%
- viability at 10 µM ([1]; BXPC-3, 10 μM, 72 hours, test 3-7-7-30 min): 100%
- viability at 10 µM ([1]; BXPC-3, 72 h, 10 μM, Average of tests): 79.9%
- viability at 10 µM ([2]; PC-3, 10 μM, 72 hours, test PC-3-0524-10 min): 103%
- viability at 10 µM ([2]; PC-3, 10 μM, 72 hours, test PC-3-0526-10 min): 132%
- viability at 10 µM ([2]; PC-3, 10 μM, 72 hours, test PC-3-0529-10 min): 120%
- viability at 10 µM ([2]; PC-3, 10 μM, 72 hours, test PC-3-0531-10 min): 135%
- viability at 10 µM ([2]; PC-3, 72 h, 10 μM, average of tests): 122%
- weight ([3]; Low dose (100 mg/kg/day) intraperitoneally, First measurement, 100 mg/kg/day): 20 g and 16 g and 21 g
- weight ([3]; Low dose (100 mg/kg/day) intraperitoneally, Fourth measurement, 100 mg/kg/day): 22 g and 23 g
- weight ([3]; Low dose (100 mg/kg/day) intraperitoneally, Second measurement, 100 mg/kg/day): 21 g and 22 g and 19 g
- weight ([3]; Low dose (100 mg/kg/day) intraperitoneally, Third measurement, 100 mg/kg/day): 23.5 g and 21 g
- health status / death of tested mice during the treatment ([3]; both high and low doses): without death
- weight of mice during the experiment ([3]; both low dose and high dose): did not show a significant decrease
- weight ([3]; high dose (200 mg/kg/day) intraperitoneally, Fourth measurement, 200 mg/kg/day): 23 g and 20 g
- weight ([3]; high dose (200 mg/kg/day) intraperitoneally, Second measurement, 200 mg/kg/day): 18.5 g and 21 g and 19 g
- weight ([3]; high dose (200 mg/kg/day) intraperitoneally, Third measurement, 200 mg/kg/day): 19 g and 22 g and 18.5 g
